# Assay results as given in patent US7037936B2, “Compounds useful for the treatment of cancer, compositions thereof and methods therewith” (Signal Pharmaceuticals, LLC., priority 2002, dated 2006).
# Where a name gives a salt, the structure may show the parent alone.
# What was measured:
# Format in all cases: cell-based
# [1] = tested on: Hela (cervix adenocarcinoma); test: Induction of cell (programmed) death in Hela cells; settings: Hela (cervix adenocarcinoma) cell line
# [2] = tested on: MDA-MB-435 (breast cancer); test: Induction of cell (programmed) death in MDA-MB-435 cells; settings: MDA-MB-435 (breast cancer) cell line
# [3] = tested on: MDA-MB-231 (breast cancer); test: Induction of cell (programmed) death in MDA-MB-231 cells; settings: MDA-MB-231 (breast cancer) cell line
# MCF-7 (breast cancer) = test: Induction of cell (programmed) death in MCF-7 cells; settings: MCF-7 (breast cancer) cell line
# HL-60 (leukemia) = test: Induction of cell (programmed) death in HL-60 cells; settings: HL-60 (leukemia) cell line
# A172 (malignant glioma) = test: Induction of cell (programmed) death in A172 cells; settings: A172 (malignant glioma) cell line
# [4] = tested on: NCIH1703 (non-small cell lung adenocarcinoma); test: Induction of cell (programmed) death in NCIH1703 cells; settings: NCIH1703 (non-small cell lung adenocarcinoma) cell line
# A357 (lung cancer) = test: Induction of cell (programmed) death in A357 cells; settings: A357 (lung cancer) cell line
# DU145 (prostate cancer) = test: Induction of cell (programmed) death in DU145 cells; settings: DU145 (prostate cancer) cell line
# MM1s (multiple myeloma) = test: Induction of cell (programmed) death in MM1s cells; settings: MM1s (multiple myeloma) cell line
# DF15 (multiple myeloma) = test: Induction of cell (programmed) death in DF15 cells; settings: DF15 (multiple myeloma) cell line
# H929 (multiple myeloma) = test: Induction of cell (programmed) death in H929 cells; settings: H929 (multiple myeloma) cell line
# U266 (multiple myeloma) = test: Induction of cell (programmed) death in U266 cells; settings: U266 (multiple myeloma) cell line
# ANB6 (multiple myeloma) = test: Induction of cell (programmed) death in ANB6 cells; settings: ANB6 (multiple myeloma) cell line
# [5] = tested on: MDA-435 human breast cancer cells; test: In vitro cell cycle assay (G1 arrest), propidium iodide DNA content by flow cytometry; settings: MDA-435 cells synchronized by serum deprivation for 24 hours, released with 10% serum; vehicle 28%
# Method: Tumor cells were synchronized by serum deprivation for 24 hours, then released by adding 10% serum to the cell culture with either the compound of EXAMPLE 1 ((4-{[3-(2,2-Dimethyl-tetrahydro-pyran-4-yl)-4-phenyl-butylamino]-methyl}-phenyl)-dimethyl-amine) (obtained from ChemBridge Corporation; single peak via HPLC: 20–100% gradient: acetonitrile/water/1% trifluoroacetic acid) or vehicle (dimethylsofloxide). Cells were harvested and stained in 0.04% digitonin working solution with […] propidium iodide. DNA content was analyzed by Flow Cytometry (Coulter). The population of cells in each phase was determined using Expo 32-ADC Software for Coulter EPICS® XL™ Cytometers, version 1.1 B (2001).
# [6] = tested on: MDA-435 human breast cancer cells; test: In vitro apoptosis assay, Annexin V-FITC and PI staining by flow cytometry; settings: MDA-435 cells
# Method: MDA-435 human breast cancer cells were treated with either vehicle or varying doses of the compound of EXAMPLE 1. Cells were harvested and stained with Annexin V-FITC and PI by Flow Cytometry using ApoAlert Annexin V-FITC apoptosis kit (Clonetech, BD). The percentage of apoptotic cells were determined using EPICS® XL™ and XL-MCL, System II™ Software, version 1.0 (1996).
structure (smiles),measurement,setting,value
"CN(C)c1ccc(CNCCC(Cc2ccccc2)C2CCOC(C)(C)C2)cc1 (centres unmarked) [EXAMPLE 1, (4-({[3-(2′,2′-dimethyltetrahydropyran-4′-yl)-4-phenylbutylamino]-methyl}-phenyl)-dimethylaminedihydrochloride]",induction of cell (programmed) death,[1],induce cell (programmed) death
same,induction of cell (programmed) death,[2],induce cell (programmed) death
same,induction of cell (programmed) death,[3],induce cell (programmed) death
same,induction of cell (programmed) death,MCF-7 (breast cancer),induce cell (programmed) death
same,induction of cell (programmed) death,HL-60 (leukemia),induce cell (programmed) death
same,induction of cell (programmed) death,A172 (malignant glioma),induce cell (programmed) death
same,induction of cell (programmed) death,[4],induce cell (programmed) death
same,induction of cell (programmed) death,A357 (lung cancer),induce cell (programmed) death
same,induction of cell (programmed) death,DU145 (prostate cancer),induce cell (programmed) death
same,induction of cell (programmed) death,MM1s (multiple myeloma),induce cell (programmed) death
same,induction of cell (programmed) death,DF15 (multiple myeloma),induce cell (programmed) death
same,induction of cell (programmed) death,H929 (multiple myeloma),induce cell (programmed) death
same,induction of cell (programmed) death,U266 (multiple myeloma),induce cell (programmed) death
same,induction of cell (programmed) death,ANB6 (multiple myeloma),induce cell (programmed) death
same,G0/G1 to S phase transition blockage,[5],38%
same,cell population with increased intensity of Annexin V-FITC staining,"[6]; varying doses, dose-dependent increase",up to 30%
same,PI staining of treated cells,[6]; PI stains cells in a late stage of apoptosis,increase in PI staining
